# Measurements published in ChEMBL document CHEMBL1201862, “PubChem BioAssay data set” (2004).
# “And” between values parts separate entries of the source, which are not always exact repeats. Equal entries are not always repeated. The source made the active and inactive calls.
# What was measured:
# Cytochrome P450 2C19 = Cytochrome P450 2C19 (Homo sapiens, UniProt P33261); assay: Cytochrome panel assay with activity outcomes. Panel member name: p450-cyp2c19 Compounds with AC50 equal or less than 10 uM are considered active; format: functional; conditions: read-out: AC50
# Chain of Cytochrome P450 2C19 (P33261 whole entry): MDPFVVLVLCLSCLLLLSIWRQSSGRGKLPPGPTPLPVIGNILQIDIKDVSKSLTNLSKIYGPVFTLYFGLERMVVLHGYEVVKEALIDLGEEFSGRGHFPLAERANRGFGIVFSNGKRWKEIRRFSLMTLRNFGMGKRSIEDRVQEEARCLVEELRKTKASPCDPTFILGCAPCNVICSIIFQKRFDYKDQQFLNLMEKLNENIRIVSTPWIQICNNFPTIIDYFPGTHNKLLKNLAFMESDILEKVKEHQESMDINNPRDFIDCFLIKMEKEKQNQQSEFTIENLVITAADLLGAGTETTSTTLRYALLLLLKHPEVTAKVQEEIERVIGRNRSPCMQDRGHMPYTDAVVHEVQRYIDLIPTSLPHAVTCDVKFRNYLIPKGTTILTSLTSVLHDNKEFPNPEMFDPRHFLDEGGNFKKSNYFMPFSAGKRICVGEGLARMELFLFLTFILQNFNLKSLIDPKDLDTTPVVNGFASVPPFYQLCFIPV
# Cytochrome P450 2D6 = Cytochrome P450 2D6 (Homo sapiens, UniProt P10635);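 also: CYP2D6 member of a cytochrome P450 panel assay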
# Chain of Cytochrome P450 2D6 (P10635 whole entry): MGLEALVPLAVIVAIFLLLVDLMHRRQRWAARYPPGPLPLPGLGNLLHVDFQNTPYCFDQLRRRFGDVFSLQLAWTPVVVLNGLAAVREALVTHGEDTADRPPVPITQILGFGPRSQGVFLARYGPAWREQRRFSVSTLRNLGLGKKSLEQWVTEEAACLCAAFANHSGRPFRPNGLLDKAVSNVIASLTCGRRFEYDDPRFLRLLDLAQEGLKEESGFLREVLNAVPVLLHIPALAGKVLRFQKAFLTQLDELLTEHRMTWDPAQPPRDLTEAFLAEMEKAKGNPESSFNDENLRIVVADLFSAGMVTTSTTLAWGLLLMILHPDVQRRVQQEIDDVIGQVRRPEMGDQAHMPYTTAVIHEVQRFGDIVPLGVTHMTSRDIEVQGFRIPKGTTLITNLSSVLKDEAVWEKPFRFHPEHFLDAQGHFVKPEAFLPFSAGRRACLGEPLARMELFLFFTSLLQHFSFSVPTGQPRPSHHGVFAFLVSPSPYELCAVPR
# [1] = target: Voltage-gated inwardly rectifying potassium channel KCNH2 (Homo sapiens, UniProt Q12809); conditions: Potency;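 also: confirmatory quantitative high-throughput screen measuring inhibition of hERG channel activity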
# Chain of Voltage-gated inwardly rectifying potassium channel KCNH2 (Q12809 whole entry): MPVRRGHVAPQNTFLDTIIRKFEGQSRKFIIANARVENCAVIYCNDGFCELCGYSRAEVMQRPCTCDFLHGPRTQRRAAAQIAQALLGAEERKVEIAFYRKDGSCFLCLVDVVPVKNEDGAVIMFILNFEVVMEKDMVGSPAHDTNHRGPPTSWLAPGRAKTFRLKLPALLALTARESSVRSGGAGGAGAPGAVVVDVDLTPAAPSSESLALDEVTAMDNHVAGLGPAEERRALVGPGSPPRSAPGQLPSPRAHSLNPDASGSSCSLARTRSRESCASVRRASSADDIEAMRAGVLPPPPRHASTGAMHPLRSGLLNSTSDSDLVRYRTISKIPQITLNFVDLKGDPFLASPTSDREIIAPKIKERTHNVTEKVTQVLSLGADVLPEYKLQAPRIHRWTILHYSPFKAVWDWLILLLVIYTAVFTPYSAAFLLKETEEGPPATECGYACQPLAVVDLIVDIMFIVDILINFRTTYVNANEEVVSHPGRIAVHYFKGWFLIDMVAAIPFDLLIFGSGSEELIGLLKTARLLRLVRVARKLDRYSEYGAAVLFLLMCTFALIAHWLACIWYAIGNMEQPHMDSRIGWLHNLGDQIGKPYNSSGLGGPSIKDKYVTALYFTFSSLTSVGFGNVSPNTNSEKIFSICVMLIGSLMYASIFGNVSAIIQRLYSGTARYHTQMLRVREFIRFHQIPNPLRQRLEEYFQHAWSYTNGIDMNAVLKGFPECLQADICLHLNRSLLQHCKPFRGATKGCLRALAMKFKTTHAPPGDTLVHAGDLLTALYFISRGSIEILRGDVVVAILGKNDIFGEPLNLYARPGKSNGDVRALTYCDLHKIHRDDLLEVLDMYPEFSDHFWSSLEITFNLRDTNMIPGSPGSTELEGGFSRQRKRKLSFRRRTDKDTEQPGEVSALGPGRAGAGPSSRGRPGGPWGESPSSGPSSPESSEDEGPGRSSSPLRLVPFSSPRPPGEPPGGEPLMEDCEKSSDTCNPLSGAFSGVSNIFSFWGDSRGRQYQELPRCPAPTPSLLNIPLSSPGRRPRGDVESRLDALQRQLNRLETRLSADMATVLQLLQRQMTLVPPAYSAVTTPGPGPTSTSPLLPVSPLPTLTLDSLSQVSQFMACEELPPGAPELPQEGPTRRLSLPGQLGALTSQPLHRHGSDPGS
# [2] = C. albicans growth with fluconazole, confirmation, fluorescence, retest (AID 2467); format: functional, cell-based
# [3] = target: Serine/threonine-protein phosphatase (Candida dubliniensis (strain CD36 / CBS 7987 / NCPF 3949 / NRRLY-17841) (Yeast), UniProt B9W6M3); assay: calcineurin pathway inhibitors in yeast reporter, dose response, S. cerevisiae, CDRE-lacZ, luminescence, secondary (AID 2388); format: functional, cell-based;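 also: yeast reporter cells carrying a calcineurin-responsive lacZ construct stimulated with calcium chloride; luminescent beta-galactosidase reporter signal in whole cells rather than isolated phosphatase activity; potency for inhibition where a drop in reporter signal means calcineurin blockade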
# Chain of Serine/threonine-protein phosphatase (B9W6M3 whole entry): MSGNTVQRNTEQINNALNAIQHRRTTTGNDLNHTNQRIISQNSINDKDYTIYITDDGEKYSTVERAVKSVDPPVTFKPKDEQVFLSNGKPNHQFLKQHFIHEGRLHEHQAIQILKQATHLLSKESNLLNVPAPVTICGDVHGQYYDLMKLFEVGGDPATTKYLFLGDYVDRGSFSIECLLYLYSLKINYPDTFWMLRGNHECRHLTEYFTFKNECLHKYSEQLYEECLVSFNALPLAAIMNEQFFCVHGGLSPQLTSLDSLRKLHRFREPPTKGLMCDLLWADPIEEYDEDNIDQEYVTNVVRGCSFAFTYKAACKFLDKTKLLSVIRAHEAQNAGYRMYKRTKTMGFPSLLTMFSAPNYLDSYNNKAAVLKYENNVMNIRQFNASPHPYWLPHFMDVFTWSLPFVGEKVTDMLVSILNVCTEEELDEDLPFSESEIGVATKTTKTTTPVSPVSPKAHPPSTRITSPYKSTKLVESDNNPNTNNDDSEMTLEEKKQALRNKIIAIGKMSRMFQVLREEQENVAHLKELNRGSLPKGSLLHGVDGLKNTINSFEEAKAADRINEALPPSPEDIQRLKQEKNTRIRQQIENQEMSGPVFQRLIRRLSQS
# [4] = target: ATP-dependent molecular chaperone HSP82 (Candida albicans (strain WO-1) (Yeast), UniProt C4YTQ8); assay: loss of DOC-induced GRE-beta-galactosidase reporter signal, dose response, Hsp90 inhibitor project, S. cerevisiae, luminescence (AID 2400); format: functional, cell-based;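 also: beta-galactosidase luminescence from glucocorticoid response element reporter as proxy for Hsp90 function; inhibitor potency where signal loss means Hsp90 inhibition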
# Chain of ATP-dependent molecular chaperone HSP82 (C4YTQ8 whole entry): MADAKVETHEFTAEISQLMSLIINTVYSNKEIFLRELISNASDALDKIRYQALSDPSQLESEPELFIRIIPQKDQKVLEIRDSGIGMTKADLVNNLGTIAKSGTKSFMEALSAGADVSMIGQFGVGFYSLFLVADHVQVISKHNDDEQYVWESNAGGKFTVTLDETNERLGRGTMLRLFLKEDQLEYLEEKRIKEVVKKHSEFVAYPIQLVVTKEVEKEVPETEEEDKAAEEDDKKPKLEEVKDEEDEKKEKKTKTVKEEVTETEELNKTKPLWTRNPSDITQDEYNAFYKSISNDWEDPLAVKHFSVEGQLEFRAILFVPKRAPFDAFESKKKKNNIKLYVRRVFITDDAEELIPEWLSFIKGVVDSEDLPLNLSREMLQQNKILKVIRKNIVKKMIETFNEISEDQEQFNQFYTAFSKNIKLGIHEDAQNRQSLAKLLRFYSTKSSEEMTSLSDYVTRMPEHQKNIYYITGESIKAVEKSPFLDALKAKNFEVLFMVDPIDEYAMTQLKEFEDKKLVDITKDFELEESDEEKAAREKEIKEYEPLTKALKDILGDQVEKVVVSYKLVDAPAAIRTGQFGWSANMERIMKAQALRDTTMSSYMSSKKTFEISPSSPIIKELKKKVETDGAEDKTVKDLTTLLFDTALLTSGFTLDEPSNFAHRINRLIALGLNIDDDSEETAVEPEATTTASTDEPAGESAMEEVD
# Cytochrome P450 3A4 = Cytochrome P450 3A4 (Homo sapiens, UniProt P08684); conditions: Potency;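 also: confirmatory qHTS run detecting inhibitors and substrates of CYP3A4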
# Chain of Cytochrome P450 3A4 (P08684 whole entry): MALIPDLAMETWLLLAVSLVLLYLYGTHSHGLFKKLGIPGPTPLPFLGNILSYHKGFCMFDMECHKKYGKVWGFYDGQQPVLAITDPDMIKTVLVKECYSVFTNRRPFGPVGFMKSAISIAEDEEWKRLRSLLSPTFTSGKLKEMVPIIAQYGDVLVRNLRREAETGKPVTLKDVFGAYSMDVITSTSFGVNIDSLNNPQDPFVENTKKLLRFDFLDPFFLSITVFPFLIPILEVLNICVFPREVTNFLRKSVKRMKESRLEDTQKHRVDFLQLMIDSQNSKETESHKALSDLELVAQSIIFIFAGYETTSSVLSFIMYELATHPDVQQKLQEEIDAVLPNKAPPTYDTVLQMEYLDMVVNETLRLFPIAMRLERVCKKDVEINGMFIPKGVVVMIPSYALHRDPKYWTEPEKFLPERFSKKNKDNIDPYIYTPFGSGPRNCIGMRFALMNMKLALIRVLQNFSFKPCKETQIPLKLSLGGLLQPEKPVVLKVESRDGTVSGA
# Phospholipase D1 = Phospholipase D1 (Homo sapiens, UniProt Q13393); assay: PLD1 inhibitor potency in cells, dose response (AID 602151); format: functional;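 also: cellular PLD1 assay in Calu-1 cells stimulated with PMA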
# Phospholipase D2 = Phospholipase D2 (Homo sapiens, UniProt O14939); assay: PLD2 inhibitor potency in cells, dose response (AID 602147); format: functional;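 also: cellular assay in HEK293 cells overexpressing GFP-tagged PLD2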
# Chain of Phospholipase D2 (O14939 whole entry): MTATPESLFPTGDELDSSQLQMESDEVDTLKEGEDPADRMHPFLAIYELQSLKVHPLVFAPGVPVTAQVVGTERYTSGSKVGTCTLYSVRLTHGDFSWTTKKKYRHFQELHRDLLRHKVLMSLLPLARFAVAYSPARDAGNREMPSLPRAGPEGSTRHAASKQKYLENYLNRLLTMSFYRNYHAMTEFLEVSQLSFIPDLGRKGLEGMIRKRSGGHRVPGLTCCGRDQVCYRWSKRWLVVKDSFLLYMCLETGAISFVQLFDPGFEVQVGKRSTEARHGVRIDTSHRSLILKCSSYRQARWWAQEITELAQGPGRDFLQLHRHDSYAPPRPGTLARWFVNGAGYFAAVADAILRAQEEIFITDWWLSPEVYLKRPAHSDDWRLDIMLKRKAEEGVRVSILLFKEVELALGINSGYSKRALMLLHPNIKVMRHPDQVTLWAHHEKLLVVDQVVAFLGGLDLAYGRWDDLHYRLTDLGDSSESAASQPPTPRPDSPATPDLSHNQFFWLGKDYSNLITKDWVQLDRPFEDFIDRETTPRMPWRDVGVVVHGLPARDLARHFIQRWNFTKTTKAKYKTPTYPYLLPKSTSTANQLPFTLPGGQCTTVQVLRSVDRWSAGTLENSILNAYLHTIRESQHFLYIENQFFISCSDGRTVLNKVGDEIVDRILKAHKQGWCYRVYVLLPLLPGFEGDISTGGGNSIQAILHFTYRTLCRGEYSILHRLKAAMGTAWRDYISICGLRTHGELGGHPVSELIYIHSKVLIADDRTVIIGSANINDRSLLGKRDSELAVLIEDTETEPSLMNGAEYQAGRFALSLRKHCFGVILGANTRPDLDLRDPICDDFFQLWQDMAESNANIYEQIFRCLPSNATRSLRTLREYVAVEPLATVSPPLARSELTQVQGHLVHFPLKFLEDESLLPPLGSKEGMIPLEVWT
compound,measurement,setting,value
O=c1oc(Cl)c(Cl)c2ccccc12,AC50,Cytochrome P450 2C19,25.1 µM (inconclusive)
same,AC50,Cytochrome P450 2D6,31.6 µM (inconclusive)
same,AC50,[1],2.82 µM (inconclusive)
C[C@]12CC[C@H](O)C[C@@H]1CC[C@@H]1[C@@H]2CC[C@]2(C)C(=O)CC[C@@H]12 [EPIANDROSTERONE],EC50,[2],877 nM (active) and 1.15 µM (active)
same,EC50,[3],> 180 µM (inactive)
same,EC50,[4],24.2 µM (active)
same,AC50,Cytochrome P450 3A4,20 µM (inconclusive)
CCC(=O)/C=C/C1C(C)=CCCC1(C)C (stereo unspecified),AC50,Cytochrome P450 3A4,31.6 µM (inconclusive)
same,AC50,[1],39.8 µM (inconclusive)
C[C@@H](CN1CCC(n2c(=O)[nH]c3cc(I)ccc32)CC1)NC(=O)C1CC1c1ccccc1 (stereo partly specified),IC50,Phospholipase D1,21 nM (active)
same,IC50,Phospholipase D2,6.5 µM (active)
